Data from PMC10305181, “A VEGFB-Based Peptidomimetic Inhibits VEGFR2-Mediated PI3K/Akt/mTOR and PLCγ/ERK Signaling and Elicits Apoptotic, Antiangiogenic, and Antitumor Activities” (Pharmaceuticals, 2023).

How the values were obtained:
[1] = molecular target: VEGFR2 extracellular domain (UniProt P35968); test: ELISA; ELISA-based displacement assay as in ref. 51 with modifications; 20 ng VEGFR2 extracellular domain; biotinylated VEGF (btVEGF165) displaced by peptide; C-VGB3 0-316 μM, L-VGB3 up to 3 mM; triplicate
[2] = system: extracellular domain of VEGFR2 (KDR); test: ELISA-based displacement (competition binding) of biotinylated VEGF from VEGFR2
Experimental: Figure 3 The binding affinity of C-VGB3 to VEGFR2. (A) ELISA-based displacement assay. The gradient concentrations of C-VGB3 (0, 0.316, 1, 3.16, 10, 31.6, 100, and 316 μM) were used in the assay. […] Error bars denote ± SEM. n = 3; ** p = 0.001, *** p = 0.0001, **** p < 0.0001, ns = not significant; one-way ANOVA. (B) A three-dimensional (produced by UCSF chimera software version 1.12) and a two-dimensional representation (produced by LigPlot software) of interactions in the C-VGB3/VEGFR2 complex is shown on the left and the right, respectively.
A displacement assay was conducted as reported previously with some modifications, including using 20 ng of the VEGFR2 extracellular domains (R&D Systems, Minneapolis, MN, USA). Peptide compounds were assayed three times per experiment.
Figure S6. Evaluating the binding capability of L-VGB3 to VEGFR2
(A) ELISA-based displacement assay. The gradient concentrations of L-VGB3 (3.16, 10, […]
to the extracellular domain of VEGFR2 at applied concentrations. (B) Two-dimensional representation of interactions (produced by LigPlot software) in L-VGB3/VEGFR2 […]

[3] = system: 4T1 murine MCT in female BALB/c mice; assay type: in vivo; details: 0.2 mg·kg^−1 i.v. once every 2 days, day 13 to 33; n = 6
Experimental: (§1) Figure 2 Loop formation is important for the antitumor activity of VGB3. (A) To investigate the efficacy of VGB3 peptides in vivo 13 days after transplantation of a 4T1 murine MCT into female BALB/c mice (the tumor volume ~150 mm^3), the treatment groups received 0.2 mg·kg^−1 (once every 2 days, i.v.) of either the C-VGB3 or L-VGB3 and the control group received PBS for 20 days. Error bars denote ± SEM. n = 6; **** p < 0.0001, ns = not significant; two-way ANOVA. (B) Investigation of C-VGB3 and L-VGB3 effects on mice weight. […] (C,D) Immunohistochemical (IHC) analyses of CD31 and Ki67 for the C-VGB3-, L-VGB3- and PBS-treated tumors. For IHC staining, the sections of tumor tissues were incubated with the primary mouse monoclonal antibodies for CD31 (1:2000 (v/v)) and Ki67 (5 µg·mL^−1). […] Photographs were taken at 40× magnification. Error bars denote ± SEM. n = 3; * 0.02 ≤ p ≤ 0.04, ns = not significant; one-way ANOVA.
The antitumor efficacy of the peptides was investigated as described previously. Thirteen days after implanting, tumor (~150 mm^3)-bearing mice were grouped randomly into control and treated animals (6/group). […] The volume of tumors was calculated as 0.52 × length × width^2. In addition, changes in the weight of animals were recorded every 2 days.

[4] = body weight / tolerability of treated 4T1 tumor-bearing mice; assay type: in vivo; details: 0.2 mg·kg^−1 i.v. once every 2 days
Experimental: as §1
The antitumor efficacy of the peptides was investigated as described previously. Thirteen days after implanting, tumor (~150 mm^3)-bearing mice were grouped randomly into control and treated animals (6/group). From day 13 to day 33, the treatment group received cyclic or linear VGB3 (0.2 mg·kg^−1), whereas the control group received an equal volume of PBS (i.v., once every two days). The volume of tumors was calculated as 0.52 × length × width^2. In addition, changes in the weight of animals were recorded every 2 days.

Ki67-positive cells = test: Ki67 immunohistochemistry of 4T1 tumors (proliferation); assay type: in vivo, murine; details: 0.2 mg·kg^−1 i.v.; n = 3
Experimental: as §1
For immunohistochemistry staining, deparaffinized tumor sections were incubated overnight at 4 °C with mouse monoclonal primary anti-Ki67 (5 µg·mL^−1) or anti-CD31 (1:2000 (v/v)). The antigens were detected using 3,3-diaminobenzidine. All images were captured and analyzed with an Olympus BX51 microscope (Olympus America, New York, NY, USA).

HUVE and 4T1 cell lines = test: MTT assay, HUVE and 4T1 cell lines (linear vs cyclic peptide, not separated); assay type: cell-based; details: cell line not specified at the place; 0–1.81 μM, 24 and 48 h
Experimental: The effects of C-VGB3 and L-VGB3 on the cell survival of HUVE and 4T1 cell lines were investigated using the MTT assay, as previously described, with some modifications. Cells were incubated with (0–1.81 μM) or without the peptide in the presence (20 ng·mL^−1) or in the absence of VEGF (Sigma-Aldrich, St. Louis, MO, USA). After 24 and 48 h of incubation at 37 °C, the absorbance at 570 nm was recorded using an ELISA plate reader (Space Fax 2100, Awareness, Palm City, FL, USA). The tests were repeated three times.

UniProt P35968, sequence (P35968 20-764): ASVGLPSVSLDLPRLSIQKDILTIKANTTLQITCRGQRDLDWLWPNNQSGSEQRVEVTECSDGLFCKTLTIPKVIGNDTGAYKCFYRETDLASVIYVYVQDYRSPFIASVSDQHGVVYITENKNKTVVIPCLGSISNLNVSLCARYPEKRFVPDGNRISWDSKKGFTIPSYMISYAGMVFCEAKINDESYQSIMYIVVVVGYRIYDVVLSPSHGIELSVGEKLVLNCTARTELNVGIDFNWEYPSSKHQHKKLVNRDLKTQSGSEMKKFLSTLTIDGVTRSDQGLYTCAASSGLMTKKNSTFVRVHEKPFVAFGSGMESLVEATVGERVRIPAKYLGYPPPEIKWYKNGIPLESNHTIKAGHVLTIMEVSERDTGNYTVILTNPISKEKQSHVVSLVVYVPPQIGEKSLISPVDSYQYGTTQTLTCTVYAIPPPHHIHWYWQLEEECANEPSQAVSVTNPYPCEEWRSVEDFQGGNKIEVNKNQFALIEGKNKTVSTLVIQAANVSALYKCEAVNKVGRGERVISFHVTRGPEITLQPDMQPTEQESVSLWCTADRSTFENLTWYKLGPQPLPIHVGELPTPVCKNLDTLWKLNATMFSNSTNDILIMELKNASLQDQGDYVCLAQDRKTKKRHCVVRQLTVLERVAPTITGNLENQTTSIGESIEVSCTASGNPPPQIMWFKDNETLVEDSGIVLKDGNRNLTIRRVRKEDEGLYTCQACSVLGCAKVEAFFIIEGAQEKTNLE

Substance	percent displacement of btVEGF165 at 100 μM C-VGB3 [1]	binding to VEGFR2 extracellular domain ([2]; 3 mM, competition binding assay)	binding to VEGFR2 extracellular domain ([2]; 3.16-3160 μM, ELISA-based displacement assay)	inhibition of 4T1 MCT (tumor growth), in words [3]	toxicity at this dosage (weight gain) ([4]; three weeks)	mice weight vs control groups ([4]; two-way ANOVA)	decrease in Ki67-positive cells, in words (Ki67-positive cells)	antiproliferative property (HUVE and 4T1 cell lines)
C-VGB3 (cyclic VGB3) (peptide)	58%							
H-ECRPPDDGLC-OH (cysteine pairing not given here) [L-VGB3, linear structure of VGB3]		no measurable binding	no binding	no effect	not toxic	no significant differences	ineffective	abolished
